A short description of the series: Metabolic stability in human liver microsomes at 1 uM in presence of NADPH regenerating system measured up to 60 mins by UFLC-MS/MS analysis. Format: ADME, Microsome. The settings on record: 1 h. (Liver microsomes are vesicles of endoplasmic reticulum, rich in cytochrome P450 enzymes.)

On to `COc1ccc(N(C)c2nc(C)nc3ccccc23)cc1OCC(=O)NO`, for which the Stabilty entry is reported as “Unstable”.
